Reference: patent US6906072B1, “Piperazine compound and pharmaceutical composition containing the compound” (Eisai Co., Ltd., priority 2000, dated 2005)
Structures can show the parent of a compound that is named as a salt.

Key:
[1] = tested on: formalin test using mouse; assay: Analgesic effect in formalin test using mouse; assay type: in vivo; details: licking time for 5 minutes
Description: Analgesic Effect (I) in Formalin Test Using Mouse
Therefore, the analgesic effect obtained in the case where the intravenous administration of the present compound was carried out was studied in the formalin test (3)) using a mouse.
Ddy mice (male, 4 to 7 weeks age) purchased from Japan SLC Co, were used for experiment. Preliminary feeding of 4 days or more was carried out for mice (breeding condition: a room temperature 23±1° C., air humidity 55±5%, lighting cycle of every 12 hours). The mice were accommodated by a group of approximately 20 in a cage made of polycarbonate for 20 mice in which floor cloth (White Flake, Charles River Co., Ltd., Tokyo) was spread, and were bred. At the morning of the day tested, they were moved to a laboratory. They were freely fed MF (Oriental Yeast Co., Tokyo) as a feed. Further, they drunk city water freely. […]
10 mg/kg of the present compound was intravenously administered via tail vein, 30 mg/kg of morphine was orally administered and 10 mg/kg of indomethacin was orally administered. […] Just after the administration of formalin, the licking time of an action in which a mouse licked his left hind leg was measured for 5 minutes, and it was made as an index of pain. […] Setting the licking time of the control as 100%, the suppression rate (%) of the present compound was calculated by the following calculation formula. […]

[2] = tested on: rat middle cerebral artery emphraxis model; assay: Shrinking effect of infarction nidus in rat middle cerebral artery emphraxis model; assay type: in vivo; details: for volume of the infarction nidus of cerebral cortex: average value±standard error, after 24 hours; for reduction of the volume of the infarction nidus of cerebral cortex: from 30 minutes after emphraxis, vs control group, measured after 24 hours
Excerpt: Shrinking Effect of Infarction nidus in rat Middle Cerebral Artery Emphraxis Model (I)
A calcium ion in the cell plays an important role in the expression of various cell functions. But when the calcium ion concentration in the cell rises excessively, cell affection is induced (refer to literatures 1) and 2), hereinafter, the same as this.). For example, neural cell affection induced by excitatory amino-acid occurring in the case of cerebral ischemia provokes excessive rise of the calcium ion concentration in the cell (3) and 4)). The maintenance mechanism of membrane potential fails by excitatory amino-acid which rose in the case of local cerebral ischemia (3)), the depolarization of membrane is induced (5)), and the influx of the calcium ion into the cell through the potential dependent calcium channel is increased (6) and 7)). […] The potential dependent calcium channels existing in the neural cell are classified in 6 kinds of sub-types based on the electro-physiological and pharmacological investigation (T, L, N, P, Q and R types) (9)). Among these, N, P and Q types play an important role in the liberation of glutamic acid from rat cerebral cortex synaptosome (10) and 11)).
The compound represented by the above formula (I) according to the present invention was dissolved in a physiological saline, and appropriately prepared so as to be in doses of 1.5, 5 and 15 mg/kg/h. The concentration of the specimen was calculated based on the average body weight of an animal. Further, the average body weight was calculated by measuring the body weight of all animals which are intended to be used for experiment. For example, in the case of 5 mg/kg/h, it was calculated as: concentration of specimen=5 mg×average body weight (kg)/administration volume (0.616 ml) per hour. • (2) Manufacture of nylon embolus
The embolus made from nylon stitch (Ethicon, Inc., Somerville, N.J., USA) of 4-0 monofilament was used for emphraxis of middle cerebral artery. As the nylon embolus, that prepared by previously rounding its tip with flame, fragmenting it in a length of 25 mm, and marking at a position of 17 mm from the tip with an oily felt pen was used. • (3) Implantation of catheter for intravenous administration
The implantation of catheter for intravenous administration (Atom Vein Catheter 3Fr, manufactured by ATOM MEDICAL Co., Ltd., Tokyo) was carried out under 70% laughing gas-2% halothane anaesthesia. Catheter which was filled up with a physiological saline solution was inserted from the femoral vein of left foot. • (4) Emphraxis of middle cerebral artery
The emphraxis of middle cerebral artery was carried out in accordance with the method of Longa et al (12)). The operation was carried out under 70% laughing gas-2% halothane anaesthesia just after implanting the catheter. A rat was laid in facing upward under the stereoscopic microscope for operation, the neck was cut open, and the portion where the whole carotid arteries of the right side are diverged to the external carotid artery and the internal carotid artery was confirmed. The external carotid artery was cut off at the periphery side, and the nylon embolus was inserted from the terminal of the external carotid artery which was cut off into the internal carotid artery. The embolus was inserted up to the position where the position of 17 mm from the tip of the embolus is duplicated with a branch point of the external carotid artery and the internal carotid artery, and was fixed.
The rat was caught and lifted with the cauda after 30 minutes from the emphraxis of middle cerebral artery, an indivisual which expresses clearly the one side paralysis of a fore-leg (the paralysis of a fore-leg of the opponent side which loaded infarct) was provided for experiment as an example in which middle cerebral artery was occluded and was able to make an ischemia condition. • (6) Administration of medium and specimen […]

[3] = tested on: T1, potential dependent calcium channel; details: 1 μM; cited from earlier work
T1 construct: other: 1 μM

[4] = tested on: rat local cerebral ischemia model; details: literature reports, result in words; cited from earlier work
formalin test = details: administration in spinal cord, literature reports, result in words; cited from earlier work
[5] = tested on: potential dependent calcium channel; assay: Measurement of potential dependent calcium channel activity using fluorescent dye (fura2) in cerebral cortex synaptosome stimulated with KCl; assay type: cell-based, rat

CC(C)N(CCN1CCN(CCCC(C#N)(c2cccs2)C(C)C)CC1)c1ccccn1 (centres unmarked) [Example 189, 1-[4-cyano-4-(2-thienyl)-5-methylhexyl]-4-[2-{N-isopropyl-N-(2-pyridyl)amino]ethyl}Piperazine]
suppression rate of licking time ([1]; 10 mg/kg intravenously, formalin 5 minutes after administration): 59%

CN1CC[C@]23c4c5ccc(O)c4O[C@H]2[C@@H](O)C=C[C@H]3[C@H]1C5 [morphine, reference compound]
suppression rate of licking time ([1]; 30 mg/kg orally, formalin 30 minutes after administration): 54%

CC(C)C(C#N)(CCCN1CCN(CCOc2cccc(C#N)c2)CC1)c1ccc(C#N)s1 (centres unmarked) [Example 70]
volume of the infarction nidus of cerebral cortex ([2]; 1.5 mg/kg/h intravenous): 128.9±12.5 mm^3 | reduction of the volume of the infarction nidus of cerebral cortex ([2]; 1.5 mg/kg/h intravenous): 4% | volume of the infarction nidus of cerebral cortex ([2]; 5 mg/kg/h intravenous): 108.0±14.9 mm^3 | reduction of the volume of the infarction nidus of cerebral cortex ([2]; 5 mg/kg/h intravenous): 20% | volume of the infarction nidus of cerebral cortex ([2]; 15 mg/kg/h intravenous): 75.7±11.2 mm^3 | reduction of the volume of the infarction nidus of cerebral cortex ([2]; 15 mg/kg/h intravenous): 44%

w-Agatoxin-IVA
inhibition against the Ca2+ influx [3]: 64%

n-conotoxin GVIA
inhibition against the Ca2+ influx [3]: 18%

CC(C)C(C#N)(CCCN1CCN(CCOc2cccc(C#N)c2)CC1)c1cccs1 (centres unmarked) [Example 75]
volume of the infarction nidus of cerebral cortex ([2]; 1.5 mg/kg/h intravenous): 119.9±12.6 mm^3 | reduction of the volume of the infarction nidus of cerebral cortex ([2]; 1.5 mg/kg/h intravenous): 26% | volume of the infarction nidus of cerebral cortex ([2]; 5 mg/kg/h intravenous): 102.0±14.1 mm^3 | reduction of the volume of the infarction nidus of cerebral cortex ([2]; 5 mg/kg/h intravenous): 37% | volume of the infarction nidus of cerebral cortex ([2]; 15 mg/kg/h intravenous): 83.7±21.3 mm^3 | reduction of the volume of the infarction nidus of cerebral cortex ([2]; 15 mg/kg/h intravenous): 49%

CSCC[C@@H]1NC(=O)[C@H](CC(C)C)NC(=O)[C@H](CCCNC(=N)N)NC(=O)[C@H](CO)NC(=O)[C@@H]2CSSC[C@@H]3NC(=O)[C@H](CO)NC(=O)CNC(=O)[C@H]([C@@H](C)O)NC(=O)[C@H](CSSC[C@H](N)C(=O)N[C@@H](CCCCN)C(=O)NCC(=O)N[C@@H](CCCCN)C(=O)NCC(=O)N[C@@H](C)C(=O)N[C@@H](CCCCN)C(=O)N2)NC(=O)[C@H](CSSC[C@@H](C(N)=O)NC(=O)[C@H](CCCCN)NC(=O)CNC(=O)[C@H](CO)NC(=O)[C@H](CCCNC(=N)N)NC3=O)NC(=O)[C@H](CC(=O)O)NC(=O)[C@H](Cc2ccc(O)cc2)NC1=O [SNX-111]
protection of neural cells in rat local cerebral ischemia model [4]: protected the liberation of glutamic acid from cerebral cortex and subsequent neural cell affection | analgesic action in the formalin test (formalin test): exhibits an analgesic action

COc1ccc(CCN(C)CCCC(C#N)(c2ccc(OC)c(OC)c2)C(C)C)cc1OC (centres unmarked) [Control, verapamil hydrochloride]
IC50 [5]: > 16 µM

ω-agatoxin IVA
protection of neural cells in rat local cerebral ischemia model [4]: exhibited a protective action for neural cell
